{"source": "patent US10836747B2", "about": "“Ethane-sulfonate salt of quinoline derivative” (ONO PHARMACEUTICAL CO., LTD., priority 2017, dated 2020)", "key": {"[1]": {"assay": "Evaluation of hygroscopicity (DVS; dynamic vapor sorption)", "format": "physicochemical", "settings": "for Weight increase at relative humidity of 90% (%): DVS, 25° C., relative to weight at 0% RH after drying", "experimental": "[3] Evaluation of Hygroscopicity (DVS; Dynamic Vapor Sorption)\nDevice: SGA-100 manufactured by TA Instruments,\nSample amount: 10 to 20 mg,\nMeasurement temperature: 25° C.,\nDrying before measurement: 60° C., 1 hour,\nStarting humidity: 0% RH,\nMaximum humidity: 90% RH,\nEquilibrium criteria: weight change rate in 5 minutes is 0.01% or less,\nSampling interval: 30 seconds,\nData recording interval: two minutes or time at which weight change rate become 0.01% or more.\nVarious acid addition salts of the compounds A produced in Examples (Examples 7, 8, 9, 10, 11, 12, 13, and 14) and the compound of the present invention (Example 6) were subjected to hygroscopicity evaluation. Based on the measurement conditions shown in [3] in [Study of acid addition salt of compound A], hygroscopicity was evaluated. Sample weight was recorded after the weight of the sample in the relative humidity set every 10% became equilibrium. After drying, the change amount (%) was converted on the basis of the weight when the relative humidity was 0%."}, "CYP": {"test_system": "CYP", "settings": "mentioned in Patent Literature 5 (WO2015/012298); cited from earlier work"}, "Axl": {"biological_target": "T1, Axl (Homo sapiens, UniProt P30530)", "T1 sequence (P30530 26-894)": "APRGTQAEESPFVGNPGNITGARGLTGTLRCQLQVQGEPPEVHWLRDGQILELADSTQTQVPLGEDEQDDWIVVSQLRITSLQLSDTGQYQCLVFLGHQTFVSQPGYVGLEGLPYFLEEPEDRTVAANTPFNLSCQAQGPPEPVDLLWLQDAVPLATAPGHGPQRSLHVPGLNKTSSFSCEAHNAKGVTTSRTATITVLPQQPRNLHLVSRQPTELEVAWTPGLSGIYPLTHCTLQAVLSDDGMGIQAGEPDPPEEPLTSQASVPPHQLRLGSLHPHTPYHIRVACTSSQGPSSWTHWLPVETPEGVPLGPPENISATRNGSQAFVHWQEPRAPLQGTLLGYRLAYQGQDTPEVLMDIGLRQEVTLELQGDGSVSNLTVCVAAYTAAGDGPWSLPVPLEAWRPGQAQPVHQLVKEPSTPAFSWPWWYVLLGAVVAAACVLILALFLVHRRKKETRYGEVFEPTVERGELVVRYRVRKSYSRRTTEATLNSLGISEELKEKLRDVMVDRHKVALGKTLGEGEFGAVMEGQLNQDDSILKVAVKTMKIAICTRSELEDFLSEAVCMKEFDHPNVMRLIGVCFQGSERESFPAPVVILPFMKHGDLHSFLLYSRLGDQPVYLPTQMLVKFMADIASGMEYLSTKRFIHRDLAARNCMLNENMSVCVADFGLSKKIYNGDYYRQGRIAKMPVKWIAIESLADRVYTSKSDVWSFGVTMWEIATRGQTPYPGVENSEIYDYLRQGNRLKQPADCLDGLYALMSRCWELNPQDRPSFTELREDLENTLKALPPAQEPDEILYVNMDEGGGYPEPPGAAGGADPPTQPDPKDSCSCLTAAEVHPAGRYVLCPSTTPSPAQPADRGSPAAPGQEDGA", "settings": "mentioned in Patent Literature 5 (WO2015/012298); cited from earlier work"}, "[2]": {"assay": "Light stability evaluation of simple formulation (mixed with CEOLUS PH-301)", "format": "physicochemical", "settings": "simple formulation with CEOLUS PH-301 1 to 5 (weight ratio), 2500 Lux D65 lamp, 25° C., 20 days", "experimental": "(§1) Ethanesulfonate of the compound A produced in Example 6 and p-toluenesulfonate of the compound A produced in Example 9 were evaluated in terms of the light stability. Each acid addition salt was weighed in a laboratory tube in about 1.8 to 2.2 mg, capped with a plastic cap and wrapped with a parafilm. A sample placed in the transparent laboratory tube was used as an exposure sample, a sample placed in the brown laboratory tube was used as a light shielded sample, and a sample placed in the brown laboratory tube and further covered with aluminum foil was used as an aluminum foil completely shielded sample. Each sample was exposed to light whose total illumination of 1200000 Lux-h or more and total near ultraviolet radiation energy of 200 W·h/m^2 or more by exposing to 2500 Lux D65 lamp at 25° C. for 20 days.\n(§2) The area percentage of ethanesulfonate of the compound A and p-toluenesulfonate of the compound A which were not exposed to light and stored at −20° C., and each acid addition salt of the compound A subjected to the above light stability test were calculated under the measurement conditions mentioned above. Next, in each acid addition salt of the compound A, the rate of the area percentage of the acid addition salt of the compound A which was not exposed to light and stored at −20° C. (area percentage of acid addition salt of compound A exposed to light for 20 days/area percentage of acid addition salt of compound A which is not exposed to light and stored at −20° C.×100) was calculated as the residual rate of each compound.\nEach acid addition salt of the compound A, regarding to ethanesulfonate of the compound A produced in Example 6 and p-toluenesulfonate of the compound A produced in Example 9, was mixed with CEOLUS (registered trademark) PH-301 (Asahi Kasei Corporation) in a mixing ratio of 1 to 5 (weight ratio) on a medicine paper with a spatula to prepare a simple formulation. The simple formulation was weighed into a laboratory tube in about 3 mg, capped with a plastic cap, and wrapped with a parafilm. Hereinafter, the light exposure condition of the compound, and the measurement conditions were corresponding to the […] of the stability of the active pharmaceutical ingredient of above (1)."}, "[3]": {"assay": "Light stability evaluation of active pharmaceutical ingredient", "format": "physicochemical", "settings": "for residual rate %: active pharmaceutical ingredient, 2500 Lux D65 lamp, 25° C., 20 days", "experimental": "as §1\nDetector: ultraviolet spectrometer (measurement wavelength: 215 nm),\nColumn: Imtakt Unison UK-C18 (3 μm, inner diameter: 4.6 mm×150 mm),\nColumn temperature: 40° C.,\nMobile phase: A liquid: 20 mM KH2PO4 aq. (pH 3.0), B liquid: CH3CN,\nFlow rate: 1.0 mL/minute,\nArea measurement range: 60 minutes\nSample concentration: 0.5 mg/mL.\nas §2"}, "[4]": {"settings": "Brown bottle (light shielded sample)"}, "[5]": {"settings": "Transparent bottle (exposure sample)"}}, "data": [{"smiles": "COc1cc2nccc(Oc3ccc(NC(=O)c4cc5c(n(-c6ccccc6)c4=O)CCCC5=O)nc3)c2cc1OC.O=S(=O)(O)CCO", "note": "[Isethionate, N-{5-[(6,7-dimethoxy-4-quinolinyl)oxy]-2-pyridinyl}-2,5-dioxo-1-phenyl-1,2,5,6,7,8-hexahydro-3-quinolinecarboxamide isethionate]", "values": [{"measurement": "Weight increase at relative humidity of 90% (%)", "setting": "[1]", "value": 14.5, "unit": "%"}]}, {"smiles": "COc1cc2nccc(Oc3ccc(NC(=O)c4cc5c(n(-c6ccccc6)c4=O)CCCC5=O)nc3)c2cc1OC.CS(=O)(=O)O", "note": "[Methanesulfonate, N-{5-[(6,7-dimethoxy-4-quinolinyl)oxy]-2-pyridinyl}-2,5-dioxo-1-phenyl-1,2,5,6,7,8-hexahydro-3-quinolinecarboxamide methanesulfonate]", "values": [{"measurement": "Weight increase at relative humidity of 90% (%)", "setting": "[1]", "value": 4.0, "unit": "%"}]}, {"smiles": "COc1cc2nccc(Oc3ccc(NC(=O)c4cc5c(n(-c6ccccc6)c4=O)CCCC5=O)nc3)c2cc1OC", "note": "[compound A, N-{5-[(6,7-dimethoxy-4-quinolinyl)oxy]-2-pyridinyl}-2,5-dioxo-1-phenyl-1,2,5,6,7,8-hexahydro-3-quinolinecarboxamide]", "values": [{"measurement": "CYP inhibitory action (in words)", "setting": "CYP", "value": "low CYP inhibitory action"}, {"measurement": "Axl-selective inhibiting activity (in words)", "setting": "Axl", "value": "Axl-selective inhibiting activity"}]}, {"smiles": "COc1cc2nccc(Oc3ccc(NC(=O)c4cc5c(n(-c6ccccc6)c4=O)CCCC5=O)nc3)c2cc1OC.O=P(O)(O)O", "note": "[Phosphate, N-{5-[(6,7-dimethoxy-4-quinolinyl)oxy]-2-pyridinyl}-2,5-dioxo-1-phenyl-1,2,5,6,7,8-hexahydro-3-quinolinecarboxamide phosphate]", "values": [{"measurement": "Weight increase at relative humidity of 90% (%)", "setting": "[1]", "value": 5.5, "unit": "%"}]}, {"smiles": "COc1cc2nccc(Oc3ccc(NC(=O)c4cc5c(n(-c6ccccc6)c4=O)CCCC5=O)nc3)c2cc1OC.O=S(=O)(O)c1ccccc1", "note": "[Benzensuplhonate, N-{5-[(6,7-dimethoxy-4-quinolinyl)oxy]-2-pyridinyl}-2,5-dioxo-1-phenyl-1,2,5,6,7,8-hexahydro-3-quinolinecarboxamide benzenesulfonate]", "values": [{"measurement": "Weight increase at relative humidity of 90% (%)", "setting": "[1]", "value": 7.2, "unit": "%"}]}, {"smiles": "COc1cc2nccc(Oc3ccc(NC(=O)c4cc5c(n(-c6ccccc6)c4=O)CCCC5=O)nc3)c2cc1OC.O=S(=O)(O)CCS(=O)(=O)O", "note": "[Ethanedisulfonate, N-{5-[(6,7-dimethoxy-4-quinolinyl)oxy]-2-pyridinyl}-2,5-dioxo-1-phenyl-1,2,5,6,7,8-hexahydro-3-quinolinecarboxamide ethanedisulfonate]", "values": [{"measurement": "Weight increase at relative humidity of 90% (%)", "setting": "[1]", "value": 46.4, "unit": "%"}]}, {"smiles": "CCS(=O)(=O)O.COc1cc2nccc(Oc3ccc(NC(=O)c4cc5c(n(-c6ccccc6)c4=O)CCCC5=O)nc3)c2cc1OC", "note": "[Ethanesulfonate, N-{5-[(6,7-dimethoxy-4-quinolinyl)oxy]-2-pyridinyl}-2,5-dioxo-1-phenyl-1,2,5,6,7,8-hexahydro-3-quinolinecarboxamide ethanesulfonate]", "values": [{"measurement": "Weight increase at relative humidity of 90% (%)", "setting": "[1]", "value": 0.7, "unit": "%"}, {"measurement": "rate of weight change upon moisture absorption (in words)", "setting": "[1]; among various acid addition salts of the compound A", "value": "small rate of weight change upon moisture absorption"}, {"measurement": "residual rate %", "setting": "[2]; Aluminum foil shielding", "value": 99.7, "unit": "%"}, {"measurement": "residual rate %", "setting": "[2]; Brown bottle", "value": 98.4, "unit": "%"}, {"measurement": "residual rate %", "setting": "[2]; Transparent bottle", "value": 59.3, "unit": "%"}, {"measurement": "residual rate %", "setting": "[3]; Aluminum foil shielding", "value": 100.0, "unit": "%"}, {"measurement": "residual rate %", "setting": "[3]; [4]", "value": 99.5, "unit": "%"}, {"measurement": "residual rate %", "setting": "[3]; [5]", "value": 94.5, "unit": "%"}, {"measurement": "stability to light (in words)", "setting": "[3]; compared with p-toluenesulfonate of the compound A, API and simple formulation", "value": "more excellent also in terms of the stability to light"}]}, {"smiles": "COc1cc2nccc(Oc3ccc(NC(=O)c4cc5c(n(-c6ccccc6)c4=O)CCCC5=O)nc3)c2cc1OC.Cl", "note": "[Hydrochloride, N-{5-[(6,7-dimethoxy-4-quinolinyl)oxy]-2-pyridinyl}-2,5-dioxo-1-phenyl-1,2,5,6,7,8-hexahydro-3-quinolinecarboxamide hydrochloride]", "values": [{"measurement": "Weight increase at relative humidity of 90% (%)", "setting": "[1]", "value": 8.0, "unit": "%"}]}, {"smiles": "COc1cc2nccc(Oc3ccc(NC(=O)c4cc5c(n(-c6ccccc6)c4=O)CCCC5=O)nc3)c2cc1OC.Cc1ccc(S(=O)(=O)O)cc1", "note": "[P-toluenesulfonate, N-{5-[(6,7-dimethoxy-4-quinolinyl)oxy]-2-pyridinyl}-2,5-dioxo-1-phenyl-1,2,5,6,7,8-hexahydro-3-quinolinecarboxamide p-toluenesulfonate]", "values": [{"measurement": "Weight increase at relative humidity of 90% (%)", "setting": "[1]", "value": 2.6, "unit": "%"}, {"measurement": "residual rate %", "setting": "[2]; Aluminum foil shielding", "value": 99.9, "unit": "%"}, {"measurement": "residual rate %", "setting": "[2]; Brown bottle", "value": 83.3, "unit": "%"}, {"measurement": "residual rate %", "setting": "[2]; Transparent bottle", "value": 40.7, "unit": "%"}, {"measurement": "residual rate %", "setting": "[3]; Aluminum foil shielding", "value": 100.6, "unit": "%"}, {"measurement": "residual rate %", "setting": "[3]; [4]", "value": 92.7, "unit": "%"}, {"measurement": "residual rate %", "setting": "[3]; [5]", "value": 86.1, "unit": "%"}]}, {"smiles": "COc1cc2nccc(Oc3ccc(NC(=O)c4cc5c(n(-c6ccccc6)c4=O)CCCC5=O)nc3)c2cc1OC.O=S(=O)(O)O", "note": "[Sulfate, N-{5-[(6,7-dimethoxy-4-quinolinyl)oxy]-2-pyridinyl}-2,5-dioxo-1-phenyl-1,2,5,6,7,8-hexahydro-3-quinolinecarboxamide sulfate]", "values": [{"measurement": "Weight increase at relative humidity of 90% (%)", "setting": "[1]", "value": 7.2, "unit": "%"}]}]}
